Measurements: patent US20230183237A1, “COMPETITIVE AND NONCOMPETITIVE INHIBITORS OF THE MUSCARINIC ACETYLCHOLINE RECEPTOR M5” (Vanderbilt University, priority 2020, published 2023)
Like-named read-outs stand apart in the source and are kept apart here.

Target: T1, hM5 (Homo sapiens, UniProt P08912)
T1 construct: expressed in transfected cells
T1 sequence (P08912 1-532): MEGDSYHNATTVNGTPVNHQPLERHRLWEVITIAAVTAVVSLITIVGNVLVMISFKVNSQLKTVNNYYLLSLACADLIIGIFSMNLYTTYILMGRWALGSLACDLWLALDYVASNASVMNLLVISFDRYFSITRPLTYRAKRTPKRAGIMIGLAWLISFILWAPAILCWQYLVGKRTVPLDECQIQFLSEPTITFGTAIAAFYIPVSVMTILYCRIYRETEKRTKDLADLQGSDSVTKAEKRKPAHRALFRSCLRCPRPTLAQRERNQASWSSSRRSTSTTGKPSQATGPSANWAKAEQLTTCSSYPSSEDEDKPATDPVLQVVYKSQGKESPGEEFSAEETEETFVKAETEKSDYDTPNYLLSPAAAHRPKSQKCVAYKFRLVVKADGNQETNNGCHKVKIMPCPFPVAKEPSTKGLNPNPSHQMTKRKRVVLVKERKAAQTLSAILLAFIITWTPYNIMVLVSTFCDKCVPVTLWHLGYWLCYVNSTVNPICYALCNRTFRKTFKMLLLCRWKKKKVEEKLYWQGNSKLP
Assay: Calcium mobilization concentration-response (IC50 vs EC80 acetylcholine), CHO hM5
Format: cell-based
Details: CELL LINE hM5, read-out: IC50
In short: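 IC50 values derive from percent maximal acetylcholine response after an EC80 ACh addition, measured as kinetic calcium fluorescence (static ratio, max−min). Test compounds were added 140 s before agonist. Cells: stable hM5-CHO in HEPES-buffered HBSS with 2.5 mM probenecid, pH 7.4; ≥3 independent triplicate determinations.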

[1] = calcium mobilization, EC80 acetylcholine addition

IC50 (vs EC80 acetylcholine) | IC50 [1] | SMILES
 | > 10000 nM | Cc1nn(C(F)F)cc1S(=O)(=O)N1CCC(c2cn3ncnc3cc2C(F)(F)F)CC1 [Compound 276, 6-(1-((1-(difluoromethyl)-3-methyl-1H-pyrazol-4-yl)sulfonyl)piperidin-4-yl)-7-(trifluoromethyl)-[1,2,4]triazolo[1,5-a]pyridine]
 | > 10000 nM | Cc1c(S(=O)(=O)N2CCC(c3cn4ncnc4cc3-c3ccn(C)n3)CC2)cnn1C [Compound 332, 6-(1-((1,5-dimethyl-1H-pyrazol-4-yl)sulfonyl)piperidin-4-yl)-7-(1-methyl-1H-pyrazol-3-yl)-[1,2,4]triazolo[1,5-a]pyridine]
37 nM |  | COc1nn(C)c(I)c1S(=O)(=O)N1CCC(c2cn3ncnc3cc2Cl)CC1 (single isomer, unassigned) [Compound 626, 7-chloro-6-(1-((5-iodo-3-methoxy-1-methyl-1H-pyrazol-4-yl)sulfonyl)piperidin-4-yl)-[1,2,4]triazolo[1,5-a]pyridine]
 | > 10000 nM | O=S(=O)(c1cc2c(cc1F)OCC2)N1CCC(c2cn3ncnc3cc2F)CC1 [Compound 106, 7-fluoro-6-(1-((6-fluoro-2,3-dihydrobenzofuran-5-yl)sulfonyl)piperidin-4-yl)-[1,2,4]triazolo[1,5-a]pyridine]
137 nM |  | COc1c(S(=O)(=O)N2CCC(c3cn4ncnc4cc3F)CC2)cnn1C [Compound 574, 7-fluoro-6-(1-((5-methoxy-1-methyl-1H-pyrazol-4-yl)sulfonyl)piperidin-4-yl)-[1,2,4]triazolo[1,5-a]pyridine]
 | 1800 nM | O=S(=O)(c1ccc2ncsc2c1)N1CCC(c2cn3ncnc3cc2C(F)(F)F)CC1 [Compound 111, 6-((4-(7-(trifluoromethyl)-[1,2,4]triazolo[1,5-a]pyridin-6-yl)piperidin-1-yl)sulfonyl)benzo[d]thiazole]
25 nM |  | Cc1cc2nccn2cc1C1CCN(S(=O)(=O)c2cnn(C)c2Cl)CC1 [Compound 581, 6-(1-((5-chloro-1-methyl-1H-pyrazol-4-yl)sulfonyl)piperidin-4-yl)-7-methylimidazo[1,2-a]pyridine]
 | 173 nM | O=S(=O)(c1c(Cl)nc2sccn12)N1CCC(c2cn3ncnc3cc2C(F)(F)F)CC1 [Compound 340, 6-chloro-5-((4-(7-(trifluoromethyl)-[1,2,4]triazoto[1,5-a]pyridin-6-yl)piperidin-1-yl)sulfonyl)imidazo[2,1-b]thiazole]
 | > 10000 nM | Cc1nc(C)c(S(=O)(=O)N2CCC(c3cn4ncnc4cc3F)CC2)s1 [Compound 235, 5-((4-(7-fluoro-[1,2,4]triazolo[1,5-a]pyridin-6-yl)piperidin-1-yl)sulfonyl)-2,4-dimethylthiazole]
 | 341 nM | CCc1cc2ncnn2cc1C1CCN(S(=O)(=O)c2cnc3ccccn23)CC1 [Compound 334, 7-ethyl-6-(1-(imidazo[1,2-a]pyridin-3-ylsulfonyl)piperidin-4-yl)-[1,2,4]triazolo[1,5-a]pyridine]
6310 nM |  | Cc1cc(C(F)(F)F)ncc1C1CCN(S(=O)(=O)c2cnn3c2OCCC3)CC1 [Compound 398, 3-((4-(4-methyl-6-(trifluoromethyl)pyridin-3-yl)piperidin-1-yl)sulfonyl)-6,7-dihydro-5H-pyrazolo[5,1-b][1,3]oxazine]
 | 1400 nM | Cc1nn(C)c(C(F)(F)F)c1S(=O)(=O)N1CCC(c2cn3ncnc3cc2C(F)(F)F)CC1 [Compound 281, 6-(1-((1,3-dimethyl-5-(trifluoromethyl)-1H-pyrazol-4-yl)sulfonyl)piperidin-4-yl)-7-(trifluoromethyl)-[1,2,4]triazolo[1,5-a]pyridine]
 | > 10000 nM | COc1cc2ncnn2cc1C1CCN(S(=O)(=O)c2ccc3c(c2)CCO3)CC1 [Compound 80, 6-(1-((2,3-dihydrobenzofuran-5-yl)sulfonyl)piperidin-4-yl)-7-methoxy-[1,2,4]triazolo[1,5-a]pyridine]
 | > 10000 nM | CCn1ncc(S(=O)(=O)N2CCC(c3cn4ncnc4cc3C)CC2)c1C1CC1 [Compound 133, 6-(1-((5-cyclopropyl-1-ethyl-1H-pyrazol-4-yl)sulfonyl)piperidin-4-yl)-7-methyl-[1,2,4]triazolo[1,5-a]pyridine]
 | > 10000 nM | COc1cc2ncnn2cc1C1CCN(S(=O)(=O)c2cc3c(cc2F)OCC3)CC1 [Compound 81, 6-(1-((6-fluoro-2,3-dihydrobenzofuran-5-yl)sulfonyl)piperidin-4-yl)-7-methoxy-[1,2,4]triazolo[1,5-a]pyridine]
 | 205 nM | Cc1cc2ncnn2cc1C1CCN(S(=O)(=O)c2c(F)cc3c(c2F)C(C)CO3)CC1 (centres unmarked) [Compound 116, 6-(1-((4,6-difluoro-3-methyl-2,3-dihydrobenzofuran-5-yl)sulfonyl)piperidin-4-yl)-7-methyl-[1,2,4]triazolo[1,5-a]pyridine]

Further lines, the compound ahead of its results:

SMILES | IC50 (vs EC80 acetylcholine) | IC50 [1]
[2H]C1([2H])CC(c2cn3ncnc3c(F)c2C)CC([2H])([2H])N1S(=O)(=O)c1cc(C)ns1 [Compound 527, 5-((4-(8-fluoro-7-methyl-[1,2,4]triazolo[1,5-a]pyridin-6-yl)piperidin-1-yl-2,2,6,6-d4)sulfonyl)-3-methylisothiazole] | 58 nM | 
Cn1ncc(S(=O)(=O)N2CCC(c3c(C(F)(F)F)nc4n3CCCC4)CC2)c1Cl [Compound 555, 3-(1-((5-chloro-1-methyl-1H-pyrazol-4-yl)sulfonyl)piperidin-4-yl)-2-(trifluoromethyl)-5,6,7,8-tetrahydroimidazo[1,2-a]pyridine] | > 10000 nM | 
O=S(=O)(c1cnn2c1CCC2)N1CCC(c2ccncc2)CC1 [Compound 366, 3-((4-(pyridin-4-yl)piperidin-1-yl)sulfonyl)-5,6-dihydro-4H-pyrrolo[1,2-b]pyrazole] |  | > 10000 nM
O=S(=O)(c1ccc2c(c1)CCO2)N1CCC(c2ccc3occc3n2)CC1 [Compound 28, 5-(1-((2,3-dihydrobenzofuran-5-yl)sulfonyl)piperidin-4-yl)furo[3,2-b]pyridine] |  | > 10000 nM
Cc1cn2ncnc2cc1C1=CCN(S(=O)(=O)c2cnn(C)c2C)CC1 [Compound 212, 7-(1-((1,5-dimethyl-1H-pyrazol-4-yl)sulfonyl)-1,2,3,6-tetrahydropyridin-4-yl)-6-methyl-[1,2,4]triazolo[1,5-a]pyridine] |  | 1400 nM
Cc1cc2ncnn2cc1C1(O)CCN(S(=O)(=O)c2cnn(C)c2C)CC1 [Compound 308, 1-((1,5-Dimethyl-1H-pyrazol-4-yl)sulfonyl)-4-(7-methyl-[1,2,4]triazolo[1,5-a]pyridin-6-yl)piperidin-4-ol] |  | > 10000 nM
Cc1cc2ncnn2cc1C1=CCN(S(=O)(=O)c2cc3c(cc2C)OCC3C)CC1 (centres unmarked) [Compound 84, 6-(1-((3,6-dimethyl-2,3-dihydrobenzofuran-5-yl)sulfonyl)-1,2,3,6-tetrahydropyridin-4-yl)-7-methyl-[1,2,4]triazolo[1,5-a]pyridine] |  | 185 nM
Cc1cc2ncnn2cc1C1=CCN(S(=O)(=O)c2ccc3c(c2)CCO3)CC1 [Compound 35, 6-(1-((2,3-dihydrobenzofuran-5-yl)sulfonyl)-1,2,3,6-tetrahydropyridin-4-yl)-7-methyl-[1,2,4]triazolo[1,5-a]pyridine] |  | 518 nM
O=S(=O)(c1ccc2c(c1)CCO2)N1CCC(c2nnc(NCc3ccccc3)cc2C(F)(F)F)CC1 [Compound 44] |  | 5600 nM
Cc1c(S(=O)(=O)N2CC=C(c3cc4ncnn4cc3Cl)CC2)cnn1C [Compound 142, 6-chloro-7-(1-((1,5-dimethyl-1H-pyrazol-4-yl)sulfonyl)-1,2,3,6-tetrahydropyridin-4-yl)-[1,2,4]triazolo[1,5-a]pyridine] |  | 253 nM
Cc1cc2ncccc2cc1C1CCN(S(=O)(=O)c2cnn(C)c2CC#N)CC1 [Compound 461, 2-(1-methyl-4-((4-(7-methylquinolin-6-yl)piperidin-1-yl)sulfonyl)-1H-pyrazol-5-yl)acetonitrile] | 1280 nM | 
Cc1c(S(=O)(=O)N2CC=C(c3cn4ncnc4c(F)c3F)CC2)cnn1C [Compound 379, 6-(1-((1,5-dimethyl-1H-pyrazol-4-yl)sulfonyl)-1,2,3,6-tetrahydropyridin-4-yl)-7,8-difluoro-[1,2,4]triazolo[1,5-a]pyridine] |  | 243 nM
Cc1cc2ncccc2cc1C1CCN(S(=O)(=O)c2cnn(C)c2C)CC1 [Compound 418, 6(1-((1,5-dimethyl-1H-pyrazol-4-yl)sulfonyl)piperidin-4-yl)-7-methylquinoline] | 32 nM | 
Cc1cc2ncnn2cc1C1(O)CCN(S(=O)(=O)c2ccc3c(c2)CCO3)CC1 [Compound 310, 1-((2,3-dihydrobenzofuran-5-yl)sulfonyl)-4-(7-methyl-[1,2,4]triazolo[1,5-a]pyridin-6-yl)piperidin-4-ol] |  | > 10000 nM
Cn1ncc(S(=O)(=O)N2CCC(F)(c3cn4ncnc4cc3F)CC2)c1C#N [Compound 503, 4-((4-fluoro-4-(7-fluoro-[1,2,4]triazolo[1,5-a]pyridin-6-yl)piperidin-1-yl)sulfonyl)-1-methyl-1H-pyrazole-5-carbonitrile] | 1150 nM | 
Cc1cc2ncccc2cc1C1CCN(S(=O)(=O)c2cnn3c2OCCC3)CC1 [Compound 446, 3-((4-(7-methylquinolin-6-yl)piperidin-1-yl)sulfonyl)-6,7-dihydro-5H-pyrazolo[5,1-b][1,3]oxazine] | 28 nM | 
